These are literature values, as cited in patent publication US20140073698A1 (Aventis Pharma S.A., priority 2011, published 2014).

For this data set the following is noted: @pH=1; simulation input.

Take `CC(C(=O)O)c1cccc(C(=O)c2ccccc2)c1` (stereo not shown) [Ketoprofen, 2-(3-benzoylphenyl)propionic acid]: the “Reference Log D” value is 3.16.
